# Source: PubChem BioAssay AID2060485 (Molecular Pharmacology Branch, DTP, NCI, 2025)
# Several values for one entry are separate records, joined by “and”; a condition that tells them apart may be missing. Identical values can stand only once.
# Test system: A375 multi-cell spheroids with HUVEC/MSC, viability
# Test: Anticancer human tumor A375 cell line growth inhibition [GQUAD];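 note: spheroids exposed to compounds for seven days before readout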
# Details: for viability, T/C: stronger effect = lower value
# Source text: DNA G-quadruplex Stabilizer Agents in Combinations in Complex Spheroids
# A high-throughput screen of multi-cell type tumor spheroids was designed to identify active combinations of DNA G-quadruplex stabilizer agents and targeted small molecules. Complex spheroids include a stromal component modeled by human endothelial cells (HUVEC) and fibroblasts modeled by human mesenchymal stem cells (MSCs). The concentration ranges selected for each drug and investigational agent were based upon clinically achievable concentrations if the clinical Cmax of the agent was known.
# Compounds. The drugs and investigational agents: pidnarulex (CX-5461; NSC782164), APTO-253 (NSC789042), BRACO-19 (NSC847499), peposertib (NSC802822), ceralasertib (NSC780249), elimusertib (NSC800525), camonsertib (NSC841442), AZD-1390 (NSC803789), olaparib (NSC753686), talazoparib (NSC767125), ART-558 (NSC835418), sotorasib (NSC818433), MRTX-1133 (NSC836407), SN-38 (NSC673596), topotecan (NSC609699), etoposide (NSC141540), doxorubicin (NSC123127), gemcitabine (NSC613327), 5-fluorouracil (NSC19893), paclitaxel (NSC125973), vemurafenib (NSC761431), panobinostat (NSC761190), R-306465 (JNJ-16241199; NSC773264), adavosertib (NSC754352), TP-3654 (NSC805149), carboplatin (NSC241240), KSQ-4279 (NSC840948), and staurosporine (NSC755774) were obtained from the National Cancer Institute (NCI) Developmental Therapeutics Program Chemical Repository (34). The FDA-approved anticancer drug set is available from the NCI Developmental Therapeutics Program. […] The stock solutions were prepared in dimethyl sulfoxide (DMSO, Sigma-Aldrich, St. Louis, MO, cat. D2650) at 800-fold the tested concentration and stored at -70 degrees C prior to their use. All drugs and investigational agents were tested over a range starting from a high concentration at or near the clinical Cmax and decreasing in half-log increments. If the clinical Cmax for an agent had not been determined, the highest concentration tested was 10 microM.
# 2.3 Cell Culture. All cells were maintained in an incubator at 37 degrees C and 5% CO2 with 95% humidity. The PDC lines were cultured according to standard operating procedures established by the NCI PDMR. All PDCs were thawed and cultured in Matrigel-coated flasks prepared with a working solution of 1X Ham's F-12 nutrient mix, without supplementation (Invitrogen, cat. 11765054), 100 U/mL penicillin-streptomycin (Invitrogen, cat. 15140122), and 2.5% Matrigel (Corning Inc., cat. 354248) for the first three passages. The 857933-349-R-J2-PDC line was cultured in 6C/Colon 1B media, which includes advanced DMEM/F-12 (Thermo Fisher Scientific, cat. 12634028), 10 mM HEPES (Thermo Fisher Scientific, cat. 15630080), 1X GlutaMAX supplement (Thermo Fisher Scientific, cat. 35050061), 0.1 mg/mL primocin (InvivoGen, cat. ant-pm-2), 10% defined fetal bovine serum, heat inactivated (HyClone Laboratories Inc., cat. SH30070.03HI), 50% L-WRN conditioned media (ATCC, cat. CRL-3276), 1.25 mM N-Acetyl-L-cysteine (Sigma-Aldrich, cat. A9165), 10 mM nicotinamide (Sigma-Aldrich, cat. N0636), 1X B-27 supplement (Thermo Fisher Scientific, cat. 17504044), 1X N-2 supplement (Thermo Fisher Scientific, cat. 17502048), 10 microM Y-27632 dihydrochloride (Tocris Bioscience, cat. 1254), and 50 ng/mL human EGF recombinant protein (Thermo Fisher Scientific, cat. PHG0311). The 485176-168-R4-J1-PDC line was cultured in Panc media, which includes all 6C/Colon 1B media components plus 100 ng/mL human FGF-10 (Thermo Fisher Scientific, cat. 100-26), 500 nM SB-431542 (Selleckchem, cat. S1067), and gastrin (Tocris, cat. 3006).
# […]
# [1] = curve of first compound, second compound 0.0316 µM
# [2] = curve of first compound, second compound 0.1 µM
# [3] = curve of first compound, second compound 0.316 µM
# [4] = curve of first compound, second compound 1 µM
# [5] = curve of first compound, second compound 3.16 µM
# [6] = curve of first compound, second compound 10 µM
# [7] = second compound 0.0316 µM, first compound 0.0316 µM
# [8] = second compound 0.0316 µM, first compound 0.1 µM
# [9] = second compound 0.0316 µM, first compound 0.316 µM
# [10] = second compound 0.0316 µM, first compound 1 µM
# [11] = second compound 0.0316 µM, first compound 3.16 µM
# [12] = second compound 0.0316 µM, first compound 10 µM
# [13] = second compound 0.1 µM, first compound 0.0316 µM
# [14] = second compound 0.1 µM, first compound 0.1 µM
# [15] = second compound 0.1 µM, first compound 0.316 µM
# [16] = second compound 0.1 µM, first compound 1 µM
# [17] = second compound 0.1 µM, first compound 3.16 µM
# [18] = second compound 0.1 µM, first compound 10 µM
# [19] = second compound 0.316 µM, first compound 0.0316 µM
# [20] = second compound 0.316 µM, first compound 0.1 µM
# [21] = second compound 0.316 µM, first compound 0.316 µM
# [22] = second compound 0.316 µM, first compound 1 µM
# [23] = second compound 0.316 µM, first compound 3.16 µM
# [24] = second compound 0.316 µM, first compound 10 µM
# [25] = second compound 1 µM, first compound 0.0316 µM
# [26] = second compound 1 µM, first compound 0.1 µM
# [27] = second compound 1 µM, first compound 0.316 µM
# [28] = second compound 1 µM, first compound 1 µM
# [29] = second compound 1 µM, first compound 3.16 µM
# [30] = second compound 1 µM, first compound 10 µM
# [31] = second compound 3.16 µM, first compound 0.0316 µM
# [32] = second compound 3.16 µM, first compound 0.1 µM
# [33] = second compound 3.16 µM, first compound 0.316 µM
# [34] = second compound 3.16 µM, first compound 1 µM
# [35] = second compound 3.16 µM, first compound 3.16 µM
# [36] = second compound 3.16 µM, first compound 10 µM
# [37] = second compound 10 µM, first compound 0.0316 µM
# [38] = second compound 10 µM, first compound 0.1 µM
# [39] = second compound 10 µM, first compound 0.316 µM
# [40] = second compound 10 µM, first compound 1 µM
# [41] = second compound 10 µM, first compound 3.16 µM
# [42] = second compound 10 µM, first compound 10 µM
smiles,measurement,setting,value
C=CC(=O)N1CCN(c2nc(=O)n(-c3c(C)ccnc3C(C)C)c3nc(-c4c(O)cccc4F)c(F)cc23)C(C)C1 (stereo not drawn) + Cc1[nH]c2ccc(F)cc2c1-c1nc2c3cccnc3c3ncccc3c2[nH]1,IC50,[1],> 10000 nM
same,IC50,[2],> 10000 nM
same,IC50,[3],> 10000 nM
same,IC50,[4],> 10000 nM
same,IC50,[5],> 10000 nM
same,IC50,[6],> 10000 nM
same,"viability, T/C",[7],101%
same,"viability, T/C",[8],102%
same,"viability, T/C",[9],96.6%
same,"viability, T/C",[10],94.5%
same,"viability, T/C",[11],111%
same,"viability, T/C",[12],135%
same,"viability, T/C",[13],116%
same,"viability, T/C",[14],97.8%
same,"viability, T/C",[15],103%
same,"viability, T/C",[16],93.3%
same,"viability, T/C",[17],140%
same,"viability, T/C",[18],149%
same,"viability, T/C",[19],99%
same,"viability, T/C",[20],102%
same,"viability, T/C",[21],105%
same,"viability, T/C",[22],113%
same,"viability, T/C",[23],152%
same,"viability, T/C",[24],150%
same,"viability, T/C",[25],99.1%
same,"viability, T/C",[26],103%
same,"viability, T/C",[27],110%
same,"viability, T/C",[28],120%
same,"viability, T/C",[29],161%
same,"viability, T/C",[30],141%
same,"viability, T/C",[31],94.2%
same,"viability, T/C",[32],95.5%
same,"viability, T/C",[33],104%
same,"viability, T/C",[34],93.6%
same,"viability, T/C",[35],104%
same,"viability, T/C",[36],52.9%
same,"viability, T/C",[37],108%
same,"viability, T/C",[38],99%
same,"viability, T/C",[39],116%
same,"viability, T/C",[40],96.3%
same,"viability, T/C",[41],121%
same,"viability, T/C",[42],79.8%
O=C(c1cc(Cc2n[nH]c(=O)c3ccccc23)ccc1F)N1CCN(C(=O)C2CC2)CC1 + Cc1cnc(CNC(=O)c2c(=O)c3ccc(N4CCCN(C)CC4)nc3n3c2sc2ccccc23)cn1,IC50,[1],> 10000 nM
same,IC50,[2],> 10000 nM
same,IC50,[3],760 nM
same,IC50,[4],< 31.6 nM
same,IC50,[5],< 31.6 nM
same,IC50,[6],< 31.6 nM
same,"viability, T/C",[7],108%
same,"viability, T/C",[8],98.9%
same,"viability, T/C",[9],101%
same,"viability, T/C",[10],95.5%
same,"viability, T/C",[11],85.4%
same,"viability, T/C",[12],68.1%
same,"viability, T/C",[13],80.9%
same,"viability, T/C",[14],71.1%
same,"viability, T/C",[15],65.8%
same,"viability, T/C",[16],65.3%
same,"viability, T/C",[17],61.8%
same,"viability, T/C",[18],51.8%
same,"viability, T/C",[19],49.5%
same,"viability, T/C",[20],57.8%
same,"viability, T/C",[21],58.6%
same,"viability, T/C",[22],48.3%
same,"viability, T/C",[23],45%
same,"viability, T/C",[24],42%
same,"viability, T/C",[25],40.6%
same,"viability, T/C",[26],40.6%
same,"viability, T/C",[27],43.6%
same,"viability, T/C",[28],35.7%
same,"viability, T/C",[29],38%
same,"viability, T/C",[30],34.7%
same,"viability, T/C",[31],32%
same,"viability, T/C",[32],36.7%
same,"viability, T/C",[33],43%
same,"viability, T/C",[34],31.4%
same,"viability, T/C",[35],30.8%
same,"viability, T/C",[36],32.7%
same,"viability, T/C",[37],26.9%
same,"viability, T/C",[38],30.4%
same,"viability, T/C",[39],30.5%
same,"viability, T/C",[40],29.2%
same,"viability, T/C",[41],30.2%
same,"viability, T/C",[42],24.8%
Nc1ccn(C2OC(CO)C(O)C2(F)F)c(=O)n1 (stereo not drawn),"viability, T/C",compound 0.0316 µM,17.8% and 12.3% and 18.4%
same,"viability, T/C",compound 0.1 µM,9.82% and 7.07% and 9.32%
same,"viability, T/C",compound 0.316 µM,9.4% and 5.69% and 8.76%
same,"viability, T/C",compound 1 µM,10.4% and 6.8% and 10.7%
same,"viability, T/C",compound 3.16 µM,11.5% and 7.2% and 10.4%
same,"viability, T/C",compound 10 µM,9.06% and 6.96% and 7.8%
same,IC50,curve of compound,< 31.6 nM
COc1cc(C2c3cc4c(cc3C(OC3OC5COC(C)OC5C(O)C3O)C3COC(=O)C23)OCO4)cc(OC)c1O (stereo not drawn),"viability, T/C",compound 0.0316 µM,93.3% and 94.2% and 109%
same,"viability, T/C",compound 0.1 µM,105% (2×) and 118%
same,"viability, T/C",compound 0.316 µM,93.9% and 92.3% and 76.3%
same,"viability, T/C",compound 1 µM,65.6% and 63.6% and 58.4%
same,"viability, T/C",compound 3.16 µM,34% and 34.8% and 33.6%
same,"viability, T/C",compound 10 µM,24.1% and 21.5% and 21.2%
same,IC50,curve of compound,1750 nM and 1690 nM and 1370 nM
